Results from patent US20240299421A1, “CANNABIDIOL COMPOSITIONS AND USES THEREOF” (PHARMOTECH SA, priority 2020, published 2024).
“Also recorded” adds a separate entry of the source.

Experiments:
CB2 receptors = CB2 receptors (Homo sapiens, UniProt P34972); conditions: compared with THC; cited from earlier work
IBH horse skin lesions = assay: Topical CBD oil formulation on skin lesions of horses diagnosed with IBH (pruritus score, IBH lesion score); type: in vivo, Equus caballus (horse) and Equus ferus caballus (poney); conditions: 1% (w/w) CBD in sesame oil, topical once daily, 4 weeks
Procedure: (§1) The application was made by hand (using a cotton) and a glove was used for massaging the product into the affected skin area. Each horse received at minimum 1 bottle of 100 ml on Day 1 and 1 Bottle on Day 14, administration was indicated to be daily. Larger volumes have been used for larger lesions.
(§2) Safety parameters were measured by hematology measures and serum amyloid A (SSA) measures and IBH lesion score was calculated as detailed in Fettelschoss-Gabriel et al., 2018, J Allergy Clin Immunol 142(4): 1194-1205 at the beginning and at the end of the study as a disease specific observation. […] Pruritus was scored from 1-5 for each skin area affected and was calculated taking into account 3 main factors: tail scratching; mane scratching and belly scratching on ground/floor. SUM Score Pruritus-Day 1: 6 Pruritus score was calculated for Day 1, Day 14, Day 28
Then, the mean was calculated. Main pruritus signs are: tail scratching, mane scratching, face scratching and sometimes rolling on the ground for belly scratching.

[1] = Safety parameters by hematology measures; type: in vivo, Equus caballus (horse) and Equus ferus caballus (poney); conditions: 1% (w/w) CBD topical, 4 weeks
Procedure: as §1, §2

[2] = LC-MS/MS CBD dosing in blood/plasma after topical application; type: in vivo, Equus caballus (horse) and Equus ferus caballus (poney)

CB2 receptors, sequence (P34972 whole entry): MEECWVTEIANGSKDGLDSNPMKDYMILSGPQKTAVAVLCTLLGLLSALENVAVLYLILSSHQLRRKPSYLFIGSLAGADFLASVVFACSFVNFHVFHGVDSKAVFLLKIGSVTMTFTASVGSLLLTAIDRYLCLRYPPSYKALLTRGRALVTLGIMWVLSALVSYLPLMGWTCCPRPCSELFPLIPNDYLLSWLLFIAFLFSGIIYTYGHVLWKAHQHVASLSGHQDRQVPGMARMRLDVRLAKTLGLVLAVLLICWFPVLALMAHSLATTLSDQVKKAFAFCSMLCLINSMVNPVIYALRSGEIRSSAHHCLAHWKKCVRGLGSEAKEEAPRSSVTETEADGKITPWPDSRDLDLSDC

C=C(C)[C@@H]1CCC(C)=C[C@H]1c1c(O)cc(CCCCC)cc1O [CBD, 2-[(1R,6R)-6-isopropenyl-3-methylcyclohex-2-en-1-yl]-5-pentylbenzene-1,3-diol]
affinity for CB2 receptors (CB2 receptors): very low affinity | IBH symptoms during treatment (IBH lesion score) (IBH horse skin lesions; 11 animals with mild to moderate IBH): clear decrease | pruritus symptoms during treatment (pruritus score) (IBH horse skin lesions; score Day 1, Day 14, Day 28): reduce pruritus score; also recorded: clear decrease | WBC count [1]: No particular trend | eosinophile count [1]: No particular trend | CBD concentration in plasma ([2]; 1% topical concentration, LC-MS/MS): not found in detectable concentrations | systemic absorption ([2]; at 1% topical concentration): negligible
